Values after ≈ are worked out from the molar mass of the structure shown. Where two headings read alike, the source gives them in different places.
Tests used:
[1] = system: E. coli transformed with IPTG-inducible antisense clones (AS-rplW, AS-rplLrplJ, AS-elaD, AS-visC, AS-yohH, AS-atpB/E); experiment: Cell-based assay: antibiotic sensitivity of E. coli antisense clones pretreated with IPTG (Example 9)
Excerpt: The effectiveness of the above cell-based assay was validated using constructs expressing antisense RNA to the proliferation required E. coli genes rplL, rplJ, and rplW encoding ribosomal proteins L7/L12, L10 and L23 respectively. These proteins are part of the protein synthesis apparatus of the cell and as such are required for proliferation. These constructs were used to test the effect of antisense expression on cell sensitivity to antibiotics known to bind to the ribosome and thereby inhibit protein synthesis. Constructs expressing antisense RNA to several other genes (elaD, visC, yohH, and atpE/B), the products of which are not involved in protein synthesis were used for comparison.
First, pLEX5BA (Krause et al., J. Mol. Biol. 274: 365 (1997), the disclosure of which is incorporated herein by reference in its entirety) expression vectors containing antisense constructs to either rplW or to elaD were introduced into separate E. coli cell populations. Vector introduction is a technique well known to those of ordinary skill in the art. The expression vectors of this example contain IPTG inducible promoters that drive the expression of the antisense RNA in the presence of the inducer. However, those skilled in the art will appreciate that other inducible promoters may also be used. Suitable expression vectors are also well known in the art. The E. coli antisense clones to genes encoding ribosomal proteins L7/L12, L10 and L23 were used to test the effect of antisense expression on cell sensitivity to the antibiotics known to bind to these proteins. […]
The cell populations were exposed to a range of IPTG concentrations in liquid medium to obtain the growth inhibitory dose curve for each clone (FIG. 1). First, seed cultures were grown to a particular turbidity that is measured by the optical density (OD) of the growth solution. […] The cells were grown for up to 15 hours and the extent of growth was determined by measuring the optical density of the cultures at 600 nm. […]

[2] = system: Bacterial cells expressing antisense nucleic acid complementary to rplL and rplJ (50S ribosomal subunit proteins); experiment: microbe, parasite or virus in culture; format: cell-based, E. coli; details: for IC50: Escherichia coli; for Fold Increase in Sensitivity: IC50 −IPTG versus +IPTG (400 μM); for Sensitivity Increased?: significant decrease in IC50 in the presence of inducer IPTG
Description: Two-fold dilution series of antibiotics with a known mechanism of action are generated in the culture media selected for further assay development that has been supplemented with the antibiotic used to maintain the construct. A panel of test antibiotics known to act on different pathways is tested side by side with three to four wells being used to evaluate the effect of a test antibiotic on cell growth at each concentration. Equal volumes of test antibiotic and cells are added to the wells of a 384 well microtiter plate and mixed. Cells are prepared as described above using the media selected for assay development supplemented with the antibiotic required to maintain the antisense construct and are diluted 1:100 in identical media immediately prior to addition to the microtiter plate wells. For a control, cells are also added to several wells that contain the solvent used to dissolve the antibiotics but no antibiotic. Cell growth is monitored continuously by incubation at 37° C. in a microtiter plate reader monitoring the OD600 of the wells over an 18-hour period. […] A plot of percent inhibition against log[antibiotic concentration] allows extrapolation of an IC50 value for each antibiotic.
The culture media selected for use in the assay is supplemented with inducer at concentrations shown to inhibit cell growth by 50% and 80% as described above and the antibiotic used to maintain the construct. Two fold dilution series of the panel of test antibiotics used above are generated in each of these media. Several antibiotics are tested side by side with three to four wells being used to evaluate the effects of an antibiotic on cell growth at each concentration, in each media. Equal volumes of test antibiotic and cells are added to the wells of a 384 well microtiter plate and mixed. Cells are prepared as described above using the media selected for use in the assay supplemented with the antibiotic required to maintain the antisense construct. […] Immediately prior to addition to the microtiter plate wells, the cultures are adjusted to an appropriate OD600 (typically 0.002) by dilution into warm (37° C.) sterile media supplemented with identical concentrations of the inducer and antibiotic used to maintain the antisense construct. For a control, cells are also added to several wells that contain solvent used to dissolve test antibiotics but which contain no antibiotic. Cell growth is monitored continuously by incubation at 37° C. in a microtiter plate reader monitoring the OD600 of the wells over an 18-hour period. […] A plot of percent inhibition against log[antibiotic concentration] allows extrapolation of an IC50 value for each antibiotic.
Antibiotics of various chemical classes and modes of action were purchased from Sigma Chemicals (St. Louis, Mo.). Stock solutions were prepared by dissolving each antibiotic in an appropriate aqueous solution based on information provided by the manufacturer. The final working solution of each antibiotic contained no more than 0.2% (w/v) of any organic solvent. To determine their potency against a bacterial strain engineered for expression of an antisense complementary to a proliferation-required gene encoding 50S ribosomal protein, each antibiotic was serially diluted two or three fold in growth medium supplemented with the appropriate antibiotic for maintenance of the anti-sense construct. At least ten dilutions were prepared for each antibiotic. 25 μL aliquots of each dilution were transferred to discrete wells of a 384-well microplate (the assay plate) using a multi-channel pipette. Quadruplicate wells were used for each dilution of an antibiotic under each treatment condition (plus and minus inducer). Each assay plate contained twenty wells for cell growth controls (growth media replacing antibiotic), ten wells for each treatment (plus and minus inducer, in this example IPTG).

E. coli = experiment: Inhibition of E. coli proliferation after IPTG induction of antisense clones (growth curves, dilution spotting, score); format: cell-based, Escherichia coli; details: IPTG induction (1 mM)
Description: (§1) To study the effects of transcriptional induction in liquid medium, growth curves were carried out by back diluting cultures 1:200 into fresh media with or without 1 mM IPTG and measuring the OD450 every 30 minutes (min). To study the effects of transcriptional induction on solid medium, 10^2, 10^3, 10^4, 10^5, 10^6, 10^7 and 10^8 fold dilutions of overnight cultures were prepared. Aliquots of from 0.5 to 3 μl of these dilutions were spotted on selective agar plates with or without 1 mM IPTG. After overnight incubation, the plates were compared to assess the sensitivity of the clones to IPTG.
Of the numerous clones tested, some clones were identified as containing a sequence that inhibited E. coli growth after IPTG induction. […]
(§2) Molecule No. EcXA190, encoding a portion of the b3052 gene of Escherichia coli, was either transformed directly into Enterobacter cloacae, Salmonella typhimurium and/or Klebsiella pneumoniae or subcloned into an expression vector functional in these species and the subclones transformed into these organisms. […] After growth in liquid culture, cells were plated at various serial dilutions and a score determined by calculating the log difference in growth for INDUCED vs. UNINDUCED antisense RNA expression as determined by the maximum 10 fold dilution at which a colony was observed. […]

Klebsiella pneumoniae = experiment: Growth inhibition by induced E. coli antisense RNA in Klebsiella pneumoniae; format: cell-based; parameters: key: +: a positive in Table V below means that at least 10 fold more cells were required to observe a colony on the induced plate than on the non-induced plate; −: If there was no effect of antisense RNA expression in a microorganism, the clone is minus in Table V below; details: antisense RNA expression induced with IPTG, serial dilution plating
How it was run: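 Overnight cultures were diluted 10^2 to 10^8-fold and spotted on selective plates with or without 1 mM IPTG to induce antisense RNA from transformed E. coli sequences. After overnight growth, induced vs uninduced was scored as the log difference in the highest dilution giving colonies. No effect scores 0 (or minus); a positive score means at least 10-fold more cells were needed.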

Enterobacter cloacae = experiment: Growth inhibition by induced E. coli antisense RNA in Enterobacter cloacae; format: cell-based; parameters: key: +: a positive in Table V below means that at least 10 fold more cells were required to observe a colony on the induced plate than on the non-induced plate; −: If there was no effect of antisense RNA expression in a microorganism, the clone is minus in Table V below; details: antisense RNA expression induced with IPTG, serial dilution plating
Description: as §1
as §2, with “organisms. Suitable expression vectors are well known in the art.” for “organisms.”

Salmonella typhimurium = experiment: Growth inhibition by induced E. coli antisense RNA in Salmonella typhimurium; format: cell-based; parameters: key: +: a positive in Table V below means that at least 10 fold more cells were required to observe a colony on the induced plate than on the non-induced plate; −: If there was no effect of antisense RNA expression in a microorganism, the clone is minus in Table V below; details: antisense RNA expression induced with IPTG, serial dilution plating
Description: as §1
as §2, with “organisms. Suitable expression vectors are well known in the art.” for “organisms.”

| Molecule | IC50 ([2]; read-out: IC50 (+IPTG)) [µg/mL] | IC50 ([2]; read-out: IC50 (−IPTG)) [µg/mL] | Fold Increase in Sensitivity [2] | Sensitivity Increased? [2] | effect of antisense expression on E. coli growth/proliferation (E. coli) | also measured |
| --- | --- | --- | --- | --- | --- | --- |
| CC[C@H]1OC(=O)[C@H](C)[C@@H](O[C@H]2C[C@@](C)(OC)[C@@H](O)[C@H](C)O2)[C@H](C)[C@@H](O[C@@H]2O[C@H](C)C[C@H](N(C)C)[C@H]2O)[C@](C)(O)C[C@@H](C)C(=O)[C@H](C)[C@@H](O)[C@]1(C)O [Erythromycin] | 0.187 (≈ 0.255 µM) | 7.47 (≈ 10.2 µM) | 40 | Yes |  | sensitivity to antibiotic ([1]; initial experiments, clones with antisense to non-protein synthesis genes elaD, atpB/E and visC): do not; sensitivity to antibiotic ([1]; initial experiments, clones with antisense to protein synthesis genes (L7/L12 & L10, L7/L12 alone, L22, L18, rRNA, Elongation Factor G)): increased sensitivity |
| CCn1cc(C(=O)O)c(=O)c2ccc(C)nc21 [Nalidixic acid] | 6.03 (≈ 25.9 µM) | 6.97 (≈ 30 µM) | 1 | No |  | sensitivity to antibiotic ([1]; cells/clone expressing antisense to rplL and rplJ (L7/L12, L10), IPTG induced): does not show increased sensitivity |
| EcXA161: antisense clone insert to E. coli sbcD (nucleic acid, listed as Escherichia coli) antisense: GAAACTCAGTGGAATGGGGGAGCCGCAATAGCGAACATGTTCCATGCCGCCAATAATCTGTGCGCGGTGAATATGCCCGAGCGCGATGTAGTCGGCTGGTGGAAAGTTTTGTGCCGGAAACGCGTCCAGCGTGCCAATATAAATGTCACGCACGGCGTCACTTTTACTGGCCCCCACGGTCGTTAAATGTCCCGTGGCGATGATGGGCAGAGGCTGATCGCCGCGCAGTTTGCAGGCATCGGCATAGTGT |  |  |  |  | reduction in cell growth |  |
| EcXA172: antisense clone insert to E. coli b2345 (nucleic acid, listed as Escherichia coli) antisense: AAAACTCACCTTTTTTGTTGTTATCCCTCAATTACCACAAGTAAAAGGAGATAAACCGACAATGACCTAGACGTAATTATGTAAAAATACTGATGTTCGTCACTGACTATTTCCGATATTCAGCTGTTGAAAAATCAAAAAACTGGAAAAATAATTTTAAATATCAT |  |  |  |  |  | Sensitivity of K. pneumoniae to antisense nucleic acid (growth inhibition, induced vs. uninduced) (Klebsiella pneumoniae): −; Sensitivity of E. cloacae to antisense nucleic acid (growth inhibition, induced vs. uninduced) (Enterobacter cloacae): −; Sensitivity of S. typhimurium to antisense nucleic acid (growth inhibition, induced vs. uninduced) (Salmonella typhimurium): − |
| EcXA134: antisense clone insert to E. coli sspA (nucleic acid, listed as Escherichia coli) antisense: TGTTCGATCTCGAAACTTACACCTTTCTCAGCCAGCACAATGCGGACCTGATGGCTATAGATGTCAGTAGGACCGGAAAACAGCGTCATTACCCGAACGTTTGTTGGC |  |  |  |  | reduction in cell growth |  |

— patent US20020022718A1, “Genes identified as required for proliferation of E. coli” (priority 1999, published 2002)
